Our source for the soluble or not and crystalline form values is patent publication EP3150201B1, “COMPOSITE PREPARATION COMPRISING 5- -REDUCTASE INHIBITOR-CONTAINING FILM COATING LAYER, AND METHOD FOR PRODUCING THE COMPOSITE PREPARATION” (Hanmi Pharm. Co., Ltd., priority 2014, dated 2016).

Structures are written as SMILES.

The nature of data set [1]: Solubility test of finasteride and coating materials (visual observation). The data set is classed as physicochemical. Conditions: organic solvent-water mixture solvents of Comparative Example 1, 2, 5, 6, and 7; visually observed. The method, then:
Finasteride, Kollicoat® IR, povidone, and polyvinyl alcohol were added to the organic solvent-water mixture solvents in a variety of ratios presented in Tables 1 to 4, and it was visually observed whether finasteride, Kollicoat® IR, povidone, and polyvinyl alcohol were soluble or not in each of the organic solvent-water mixture solvents.

Data set [2] can be described thus: Crystalline form analysis of dried film by X-ray diffractometry (Test Example 4). Format: physicochemical. Conditions: raw material powder or dried film from the film coating solution. On the procedure:
Each film coating solution prepared in Examples 2 and 7 and Comparative Example 2 was sprayed on a Petri dish and dried to form a film. These films were collected, and crystalline forms thereof were analyzed using an X-ray diffractometer (D8 Advance, Bruker) with Cu X-ray radiation at a voltage of 40 kV, at a current of 100 mA, and with a scan rate of 3 deg/min. The results of the X-ray diffractometry of finasteride powder as a raw material, and the dried films prepared using the film coating solutions of Examples 2 and 7 and Comparative Example 2 are shown in FIG. 5.

With `CC(C)(C)NC(=O)[C@H]1CC[C@H]2[C@@H]3CC[C@H]4NC(=O)C=C[C@]4(C)[C@H]3CC[C@]12C` [Finasteride, finasteride], the soluble or not result in data set [1] is given as “insoluble”. In addition, the crystalline form entry in data set [2] is “crystalline”.
